Laboratory results from patent US20190254282A1, “Non-Leaching Surface Sanitizer and Wipe with Improved Washability and/or Absorbency” (Livinguard AG, priority 2016, published 2019).

Tests used:
Type in all cases: cell-based
[1] = test system: fungi (Candida albicans and Aspergillus Niger); assay: Antimicrobial performance of treated textiles against fungi (Experimental Examples 1); settings: 6% o.w.f. of the chemical
Protocol: (§1) All microbiological tests were performed with cultures of the bacteria Escherichia coli American Type Culture Collection (ATCC) 25922, Staphylococcus aureus ATCC 6538, Pseudomonas aeruginosa ATCC 15442, Salmonella enterica ATCC 10708, and of the fungi Candida albicans ATCC 10231, and Aspergillus Niger ATCC […].
(§2) With Experimental Examples 1, the effect of the application of different numbers of agents to the starting textile materials was studied. The agents applied to the cotton material were taken from the group of silver, PHMB, and propiconazole, which are the three most preferred antimicrobial agents for treating cellulosic textile materials. The agents applied to the polyester material were taken from the group of silver, propiconazole, and quaternary ammonium organosilane compounds, which are the three most preferred antimicrobial agents for treating synthetic textile materials.
(§3) The textiles were treated with (1) each of the agents from the respective group individually, (2) all three tuple combinations of agents from the respective groups, and (3) all three agents from the respective groups together. The total amount of the chemicals in all experiments was 6% o.w.f. Thus, where one single agent was applied to the textile, 6% o.w.f. of the respective chemical was used, where a combination of two agents was applied, 3% o.w.f. of each of the respective two chemicals was used, and where a combination of three agents was applied, 2% o.w.f. of each of the respective three chemicals was used.
(§4) The finishing process was as described above in the context of the working examples, but since no hydrophilic/stain release agent was applied, there was only one process cycle. The fabric was exhausted and then dried and cured in one single pass through the stenter, with the process parameters as described above.

[2] = test system: bacteria (Escherichia coli, Staphylococcus aureus, Pseudomonas aeruginosa, and Salmonella enterica); assay: Antimicrobial performance of treated textiles against bacteria (Experimental Examples 1); settings: 6% o.w.f. of the chemical; for efficiency in killing bacteria: polyester textile treated with one single agent; for efficiency for killing bacteria: cotton textile treated with one single agent
Protocol: as §1, §2, §3, §4

microorganisms = assay: Tests made by the inventor on alternative metals and azoles adhered to textiles (results not reproduced)
[3] = polyester textile treated with one single agent
[4] = cotton textile treated with one single agent

For `CCCCCCCCCCCCCCCCCC[N+](C)(C)CCC[Si](OC)(OC)OC` [Dimethyloctadecyl[3-(trimethoxysilyepropyl]ammonium chloride], which “efficiency for killing fungi” value [1, 3] is on record?
The value was “not efficient”.

What about the “efficiency in killing bacteria” value [2] of the same compound?
The value was “about equally efficient”.

How did the “efficiency for killing fungi” value [1, 4] turn out when propiconazole [reference compound] was run?
The value was “efficient”.

And the “efficiency for killing fungi” value [1, 3]?
The value was “works well”.

What about the “efficiency for killing bacteria” value [2] of the same compound?
Its value is “not efficient”.

And the “efficiency in killing bacteria” value [2]?
The value was “about as efficient against bacteria as silver and quaternary ammonium organosilane”.

Which “antimicrobial performance compared with zinc and copper” value (microorganisms) does the source give for silver here?
Its value is “considerably higher than that of zinc, and even much higher than that of copper”.

And the “efficiency for killing fungi” value [1, 4]?
Its value is “perform poorly”.

What about the “efficiency for killing fungi” value [1, 3] of the same compound?
The value was “not efficient”.

And the “efficiency for killing bacteria” value [2]?
Its value is “about equally efficient”.

What about the “efficiency in killing bacteria” value [2] of the same compound?
The value was “about equally efficient”.
